Values joined by “and” are separate entries in the source; they are usually repeats but may differ in a detail not shown here. Identical values can stand only once.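 These data come from cells grown in 96-well plates and exposed to compound for 48 hours at five concentrations. GI50 = concentration required for 50% inhibition of growth. Definition used: TGI = concentration required for complete inhibition of growth.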
Columns and labels:
Test in all cases: NCI anticancer screen, dose series, 48 h
[1] = system: MCF7 breast
[2] = system: OVCAR-8 ovarian
[3] = system: PC-3 prostate
[4] = system: EKVX NSCLC
[5] = system: OVCAR-5 ovarian
[6] = system: M14 melanoma
[7] = system: COLO 205 colon
[8] = system: NCI/ADR-RES ovarian
[9] = system: SK-MEL-5 melanoma
[10] = system: CCRF-CEM leukemia

SMILES | TGI [1] | TGI [2] | TGI [3] | TGI [4] | TGI [5] | TGI [6] | TGI [7] | TGI [8] | TGI [9] | TGI [10] | GI50 [1] | GI50 [2] | GI50 [3] | GI50 [4] | GI50 [5] | GI50 [6] | GI50 [7] | GI50 [8] | GI50 [9] | GI50 [10]
Cc1ncc([N+](=O)[O-])n1CCNS(=O)(=O)CCCn1ncnc1[N+](=O)[O-] | > 100 µM | > 100 µM | > 100 µM | > 100 µM | > 100 µM | > 100 µM | > 100 µM | > 100 µM | > 100 µM | > 100 µM |  |  |  |  |  |  |  |  |  | 
O=c1oc2ccc(Br)cc2c(=O)n1-c1ccc(F)cc1F | > 100 µM | 24.2 µM | 12.7 µM | 9.32 µM | > 100 µM | 7.55 µM | 16.4 µM | 30.5 µM | 2.82 µM | > 100 µM | 2.57 µM | 2.81 µM | 2.85 µM | 2.03 µM | 3.79 µM | 1.59 µM | 3.92 µM | 2.9 µM | 1.38 µM | 3.91 µM
O=[N+]([O-])c1ccc(CSCc2ccc(Cl)cc2)cc1 | > 100 µM | > 100 µM | > 100 µM | > 100 µM | > 100 µM | > 100 µM | > 100 µM | > 100 µM | > 100 µM | 38.7 µM |  |  |  |  |  |  |  |  |  | 
Cn1cc(-c2ccc(-c3cncc(Cl)c3N3CCC4(CCNC4=O)CC3)cc2)cn1 | > 100 µM | > 100 µM | > 100 µM | > 100 µM | > 100 µM | > 100 µM | > 100 µM | > 100 µM | > 100 µM | > 100 µM | 38.5 µM | 29.4 µM | 47.3 µM | 51.9 µM | > 100 µM | 76 µM | 10.6 µM | 45.3 µM | 40.3 µM | 44.5 µM
O=C(CSC(c1ccccc1)c1ccccc1)N/N=C/c1ccco1 | > 5.22 µM | 6.67 µM | 9 µM | > 5.19 µM | 5.24 µM | 2.69 µM | 52 µM | 1.24 µM | 6.41 µM | 22 µM | 1.74 µM | 1.84 µM | 2.03 µM | 2.44 µM | 1.97 µM | 1.49 µM | 20.3 µM |  | 1.5 µM | 2.48 µM
COC(=O)c1cc(/C=C/c2ccc(S(N)(=O)=O)cc2)ccc1O | > 100 µM | > 100 µM | > 100 µM | > 100 µM | > 100 µM | > 100 µM | > 100 µM | > 100 µM | 35.5 µM | > 100 µM | 30.7 µM | 27.3 µM | 30.7 µM | 29.3 µM | 59.2 µM | 35.3 µM | 29.8 µM | 59.2 µM | 14.5 µM | 41 µM
O=C(N/N=C/c1c(Cl)cccc1Cl)c1ccc(C(F)(F)F)nc1Nc1cccc(C(F)(F)F)c1 | > 35.8 µM | > 45.6 µM | > 21.1 µM | > 27.9 µM | > 30.2 µM | > 31.1 µM | 2.59 µM |  | 2.84 µM | 8.98 µM | 1.03 µM | 1.07 µM | 0.767 µM | 0.886 µM | 4.06 µM | 1.6 µM | 0.67 µM | 0.616 µM | 0.829 µM | 0.34 µM
COCOc1ccc(C2(O)Oc3cc(OCOC)ccc3C2C)c(O)c1 (centres undefined) | 27.9 µM | 32 µM | 26.3 µM | 28.2 µM | 31.3 µM | 30.4 µM | 32.2 µM | 30.9 µM | 23 µM | 53.7 µM |  |  |  |  |  |  |  |  |  | 
Cn1c(=O)c2c(ncn2CC(=O)Nc2ccc(-c3ccccc3)nn2)n(C)c1=O | > 100 µM | > 100 µM | > 100 µM | > 100 µM | > 100 µM | > 100 µM | > 100 µM | > 100 µM | > 100 µM | > 100 µM | > 100 µM | > 100 µM | > 100 µM | > 100 µM | > 100 µM | 10.4 µM | > 100 µM | > 100 µM | 62.6 µM | > 100 µM
COc1ccc2c3c(Nc4ccc(/C(C)=N/O)cc4)[nH]c4ccccc4c-3c(N=O)c2c1 | > 100 µM | 20.2 µM | 3.2 µM | 20.4 µM | 12.2 µM | 5.64 µM | 34.9 µM | 20.2 µM | 14.8 µM | 2.92 µM | 0.843 µM | 3.55 µM | 1.52 µM | 3.74 µM | 3.02 µM | 2.44 µM | 19.5 µM | 5.78 µM | 3.76 µM | 1.09 µM
COc1ccc2c(Oc3ccc(NC(=O)c4c(C)n(CC(C)(C)O)n(-c5ccccc5)c4=O)nc3)ccnc2c1 | 97.7 µM | > 100 µM | > 95.6 µM | > 80.3 µM | > 89.6 µM | > 100 µM | > 100 µM | > 100 µM | > 68.1 µM | > 100 µM | 26.2 µM | 9.48 µM | 19.5 µM | 23.3 µM | 37.8 µM | 6.29 µM | > 73.4 µM | 20.5 µM | 11.5 µM | 18.2 µM
COC(C(=O)[C@@H](O)[C@@H](C)O)[C@@H]1Cc2cc3cc(O[C@H]4C[C@@H](O[C@H]5C[C@@H](O)[C@H](O)C(C)O5)[C@H](O)C(C)O4)c(C)c(O)c3c(O)c2C(=O)[C@H]1O[C@H]1C[C@@H](O[C@H]2C[C@@H](O[C@H]3C[C@@H](O)[C@H](OC)C(C)O3)[C@@H](O)C(C)O2)[C@H](O)C(C)O1 (some centres undefined) | > 33.3 µM | > 33.3 µM | > 33.3 µM | > 33.3 µM | > 33.3 µM | 0.349 µM | 0.0521 µM | > 33.3 µM | 0.0444 µM | > 13.1 µM | 0.00728 µM | 0.0286 µM | 0.0317 µM |  |  | 0.0372 µM | 0.0145 µM | 6.93 µM | 0.00955 µM | 0.0425 µM
O=C(OCc1ccc2c(Cl)cc(Cl)c(O)c2n1)N1CCN(C(=O)c2cc3cc(F)ccc3[nH]2)CC1 | > 100 µM | > 100 µM | > 100 µM | > 100 µM | > 100 µM | > 100 µM | > 100 µM |  | 3.9 µM | > 100 µM | 0.404 µM | 0.551 µM | 1.59 µM | > 74.9 µM | > 37.5 µM | 0.675 µM | 38.7 µM | 0.331 µM | 1.11 µM | 0.876 µM
C/C(=N\NC(=S)N1CC2CCC(CC2)C1)c1ccccn1 | 1.44 µM | 1.53 µM | 1.75 µM | 1.16 µM | 2.73 µM | 1.21 µM | 0.0719 µM | 2.43 µM | 0.852 µM |  | < 0.0145 µM | < 0.0209 µM | 0.026 µM | 0.0322 µM | 0.0949 µM | 0.0431 µM | 0.0146 µM | < 0.0177 µM | 0.133 µM | 0.0335 µM
O=C(N/N=C/c1ccc([N+](=O)[O-])o1)c1ccc(O)cc1 | 14 µM | > 100 µM | > 100 µM | 42.9 µM | > 100 µM | 11.3 µM | 16.1 µM | > 100 µM | 2.88 µM | 70.5 µM | 2.84 µM | 4.86 µM | 27 µM | 8.46 µM | 9.32 µM | 3.67 µM | 4.63 µM | 5.54 µM | 1.47 µM | 0.804 µM
CCCCCCCCCCCCOC1C(C(CC(=O)NCCN2CCCC2)NS(=O)(=O)c2cc(Cl)cc(Cl)c2)OC2OC(C)(C)OC21 (centres undefined) | 3.91 µM and 3.51 µM | 4.88 µM | 3.02 µM | 3.49 µM | 4.34 µM | 3.45 µM | 4.4 µM and 2.66 µM | 4.08 µM | 3.27 µM | 0.0349 µM | 1.98 µM and 1.73 µM | 2.21 µM | 1.64 µM | 1.87 µM | 2.17 µM | 1.71 µM | 2.06 µM and 1.19 µM | 2.04 µM | 1.81 µM | 0.00586 µM

Source: PubChem BioAssay (NCI)
